Values of other authors in patent US5849733A, “2-thio or 2-oxo flavopiridol analogs” (Bristol-Myers Squibb Co., priority 1997, dated 1998).

Tested on: apoptosis
Details: J. Cell Sci., 108, 2897 (1995)

Cn1cnc2c(NCc3ccccc3)nc(NCCO)nc21 [olomucine]
synergy with known cytotoxic agents in inducing apoptosis: act synergistically with known cytotoxic agents in inducing apoptosis
